Experimental data published in US20120004245A1, “COMPOUNDS FOR THE TREATMENT OF POSTERIOR SEGMENT DISORDERS AND DISEASES” (ALCON RESEARCH, LTD., priority 2010, published 2012).
Like-named read-outs stand apart in the source and are kept apart here.

Legend:
[1] = tested on: laser-induced choroidal neovascularization (CNV); assay: Mouse laser-induced CNV, prevention; conditions: single ivt injection
Source text: METHODS. CNV was generated by laser-induced rupture of Bruch's membrane. […] A hand-held cover slip was applied to the cornea and used as a contact lens to aid visualization of the fundus. Three to four retinal burns were placed in randomly assigned eye (right or left eye for each mouse) using the Alcon 532 nm EyeLite laser with a slit lamp delivery system. The laser burns were used to generate a rupture in Bruch's membrane, which was indicated ophthalmoscopically by the formation of a bubble under the retina. Only mice with laser burns that produced three bubbles per eye were included in the study. Burns were typically placed at the 3, 6, 9 or 12 o'clock positions in the posterior pole of the retina, avoiding the branch retinal arteries and veins.
Each mouse was randomly assigned into one of the following treatment groups: noninjected controls, sham-injected controls, vehicle-injected mice, or one of three Compound-injected groups. Control mice received laser photocoagulation in both eyes, where one eye received a sham injection, i.e. a pars plana needle puncture. For intravitreal-injected animals, one laser-treated eye received a 2 or 5 μl intravitreal injection of 0.1%-3% of a RTKi or vehicle. For prevention studies, the intravitreal injection was performed immediately after laser photocoagulation. […] At 14 days post-laser, all mice were anesthetized and systemically perfused with fluorescein-labeled dextran. Eyes were then harvested and prepared as choroidal flat mounts with the RPE side oriented towards the observer. All choroidal flat mounts were examined using a fluorescent microscope. Digital images of the CNV were captured, where the CNV was identified as areas of hyperfluorescence within the pigmented background. Computerized image analysis was used to delineate and measure the two dimensional area of the hyperfluorescent CNV per lesion (μm^2) for the outcome measurement. The median CNV area/burn per mouse per treatment group or the mean CNV area/burn per treatment group was used for statistical analysis depending on the normality of data distribution; P<0.05 was considered significant.

[2] = tested on: preretinal neovascularization; assay: Rat oxygen-induced retinopathy (OIR) model, prevention; format: in vivo; conditions: for ED50 (nmole) / ED50 (μg) / Potency: Rat OIR Prevention; for ED50 (nmole) / ED50 (μg): dose-response, single ivt injection; for Potency: relative to reference RTKi (=1); for Efficacy (0.1%) Median-value / Efficacy (1%) Median-value: rat OIR prevention, vs vehicle, *P<0.05; for Efficacy (0.1%) Median-value: single ivt injection of 0.1% suspension; for Efficacy (1%) Median-value: single ivt injection of 1% suspension
Source text: (§1) METHODS: Pregnant Sprague-Dawley rats were received at 14 days gestation and subsequently gave birth on Day 22±1 of gestation. Immediately following parturition, pups were pooled and randomized into separate litters (n=17 pups/litter), placed into separate shoebox cages inside oxygen delivery chamber, and subjected to an oxygen-exposure profile from Day 0-14 postpartum. Litters were then placed into room air from Day 14/0 through Day 14/6 (days 14-20 postpartum). For prevention studies, each pup was randomly assigned into various treatment groups on Day 14/0. For those randomized into an injection treatment group: one eye received a 5 μl intravitreal injection of between 0.01%-1% of a RTKi and the contralateral eye received a 5 μl intravitreal injection of vehicle. At Day 14/6 (20 days postpartum), all animals were euthanized. For regression studies, each pup was randomly assigned as an oxygen-exposed control or into various treatment groups on […]. For those randomized into an injection treatment group: one eye received a 5 μl intravitreal injection of between 0.01%-1% RTKi and the contralateral eye received a 5 μl intravitreal injection of vehicle. At Day 14/7 (21 days postpartum), all animals were euthanized. Immediately following euthanasia, retinas from all rat pups were harvested, fixed in 10% neutral buffered formalin for 24 hours, subjected to ADPase staining, and fixed onto slides as whole mounts. Digital images were acquired from each retinal flat mount that was adequately prepared. Computerized image analysis was used to obtain a NV clockhour score from each readable sample. Each clockhour out of 12 total per retina was assessed for the presence or absence of preretinal NV. Statistical comparisons using median scores for NV clockhours from each treatment group were utilized in nonparametric analyses. Each noninjected pup represented one NV score by taking the average value of both eyes and was used in comparisons against each dosage group. Because the pups were randomly assigned and no difference was observed between oxygen-exposed control pups from all litters, the NV scores were combined for all treatment groups. P≦0.05 was considered statistically significant.

[3] = tested on: VEGF-induced retinal vascular permeability; assay: VEGF-induced retinal vascular permeability in the rat, intravitreal delivery; format: in vivo; conditions: for Efficacy (0.1%) / Efficacy (1%): inhibition of VEGF-induced RVP vs vehicle-injected controls, *P<0.05; for Efficacy (0.1%): single ivt injection of 0.1% suspension; for Efficacy (1%): single ivt injection of 1% suspension; for ED50 (nmole) / ED50 (μg) / Potency: rat VEGF-induced RVP; for ED50 (nmole) / ED50 (μg): dose-response, single ivt injection; for Potency: relative to reference standard, * = equipotent, 95% CL encompass 1.0
Protocol: METHODS: Adult Sprague-Dawley rats were anesthetized with intramuscular ketamine/xylazine and their pupils dilated with topical cycloplegics. […] Ten μl of each compound was intravitreally injected in each treatment eye (n=5˜6 animals per group). Three days following first intravitreal injection, all animals received an intravitreal injection of 10 μl 500 ng hr VEGF in both eyes. Twenty-four hours post-injection of VEGF, intravenous infusion of 3% Evans blue dye was performed in all animals, where 50 mg/kg of Evans blue dye was injected via the lateral tail vein during general anesthesia. After the dye had circulated for 90 minutes, the rats were euthanized. The rats were then systemically perfused with balanced salt solution, and then both eyes of each rat were immediately enucleated and the retinas harvested using a surgical microscope. After measurement of the retinal wet weight, the Evans blue dye was extracted by placing the retina in a 0.2 ml formamide (Sigma) and then the homogenized and ultracentrifuged. Blood samples were centrifuged and the plasma diluted 100 fold in formamide. For both retina and plasma samples, 60 μl of supernatant was used to measure the Evans blue dye absorbance (ABS) with at 620/740 nm. The blood-retinal barrier breakdown and subsequent retinal vascular permeability as measured by dye absorbance were calculated as means+/−s.e.m. of net ABS/wet weight/plasma ABS. One way ANOVA was used to determine an overall difference between treatment means. And a test or Man-Whitney rank sum test was performed for a pair-wise comparison between treatment groups, where P<0.05 was considered significant.

[4] = tested on: bovine retinal endothelial cells (BRECs); assay: VEGF-induced proliferation of bovine retinal endothelial cells (BrdU ELISA); format: cell-based; conditions: for EC50: Bos taurus, Endothelial cell, read-out: VEGF ind BREC prolif EC50; for activity against VEGF-induced proliferation: in words, compared to Compounds I-VII
Protocol: METHODS. […] After another 22-24 hours the cells are treated with or without 50 ng/ml VEGF media and the test compounds in the 1% FBS media. After 30 hours BrdU is then added for the final 16 hours of the incubation. All cells are then fixed and assayed with a colorimetric BrdU ELISA kit.

[5] = tested on: preretinal neovascularization; assay: Rat oxygen-induced retinopathy (OIR) model, regression; format: in vivo; conditions: for ED50 (nmole) / ED50 (μg): dose-response, single ivt injection; for Potency: relative to reference RTKi (=1)
Source text: as §1

KDR (VEGFR2) kinase = target: T1, KDR (VEGFR2) kinase (Homo sapiens, UniProt P35968); assay: KDR HTRF kinase assay (KinEASE-TK); format: biochemical; conditions: for IC50: HTRF enzyme assay, KDR (human VEGFR2); for activity against KDR: in words, compared to Compounds I-VII
T1 construct: purchased Cell Signaling Technology
T1 sequence (P35968 20-1356): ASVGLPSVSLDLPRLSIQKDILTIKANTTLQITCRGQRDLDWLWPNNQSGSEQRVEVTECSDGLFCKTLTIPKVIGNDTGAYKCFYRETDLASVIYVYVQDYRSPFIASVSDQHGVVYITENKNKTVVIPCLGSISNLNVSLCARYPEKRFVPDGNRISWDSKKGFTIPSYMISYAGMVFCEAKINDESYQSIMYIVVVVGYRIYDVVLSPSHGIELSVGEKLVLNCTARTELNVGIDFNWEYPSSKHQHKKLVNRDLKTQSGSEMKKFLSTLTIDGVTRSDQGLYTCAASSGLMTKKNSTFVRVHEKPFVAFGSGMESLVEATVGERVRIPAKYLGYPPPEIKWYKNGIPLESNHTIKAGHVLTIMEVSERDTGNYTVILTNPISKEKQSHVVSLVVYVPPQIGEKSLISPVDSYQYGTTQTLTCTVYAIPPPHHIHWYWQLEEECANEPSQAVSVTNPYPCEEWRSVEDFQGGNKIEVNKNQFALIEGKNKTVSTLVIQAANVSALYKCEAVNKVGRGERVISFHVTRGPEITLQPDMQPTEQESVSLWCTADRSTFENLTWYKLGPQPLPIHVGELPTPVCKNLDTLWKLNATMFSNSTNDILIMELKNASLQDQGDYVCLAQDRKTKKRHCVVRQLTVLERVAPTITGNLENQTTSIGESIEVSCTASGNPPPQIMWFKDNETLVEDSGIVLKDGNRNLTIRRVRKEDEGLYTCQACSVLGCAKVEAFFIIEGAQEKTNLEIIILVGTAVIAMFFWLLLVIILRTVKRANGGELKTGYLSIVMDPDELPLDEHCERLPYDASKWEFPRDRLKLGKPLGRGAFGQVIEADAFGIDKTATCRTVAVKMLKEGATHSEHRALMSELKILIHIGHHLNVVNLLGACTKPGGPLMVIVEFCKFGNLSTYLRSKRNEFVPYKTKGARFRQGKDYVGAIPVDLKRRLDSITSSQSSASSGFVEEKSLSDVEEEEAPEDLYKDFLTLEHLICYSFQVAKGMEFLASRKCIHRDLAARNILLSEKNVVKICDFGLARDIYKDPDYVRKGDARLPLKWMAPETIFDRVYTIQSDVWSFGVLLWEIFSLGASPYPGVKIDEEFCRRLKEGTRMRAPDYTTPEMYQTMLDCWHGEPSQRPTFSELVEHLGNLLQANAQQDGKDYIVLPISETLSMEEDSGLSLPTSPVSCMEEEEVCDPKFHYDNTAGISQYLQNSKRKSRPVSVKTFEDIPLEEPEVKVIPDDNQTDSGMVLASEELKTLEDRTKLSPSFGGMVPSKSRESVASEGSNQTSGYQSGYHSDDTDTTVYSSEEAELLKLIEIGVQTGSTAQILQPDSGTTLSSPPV
Protocol: METHODS. A 7-point HTRF (Homogeneous Time Resolved Fluorescence) kinase assays were performed using a Biomek 3000 Robotic Workstation in a 96-well plate format to determine IC50 values for the test compounds for KDR (VEGFR2) kinase using KinEASE-TK kit from CisBio. This is a general kit for tyrosine kinases including KDR kinase. The KDR kinase was purchased from Cell Signaling Technology. The assay is run in two steps. The phosphorylation of the biotin-tagged generic peptide substrate ([…]) is initiated by the addition of ATP ([…]) in the presence of KDR kinase (5 ng in […] reaction mixture) in step 1 and the reaction is stopped after 30 min incubation at room temperature by the addition of a mixture containing two HTRF detection reagents and EDTA in step 2. The substrate, enzyme, and ATP dilutions were made with the buffer provided by CisBio. Compound dilutions were made either in 5% DMSO or 10:10, (DMSO:Ethanol) to prepare 4× working stock solutions. The HTRF detection reagents were an antibody to phosphotyrosine, labeled with Eu(K) (the HTRF donor), and a streptavidin-XL665 (the HTRF acceptor).

[6] = tested on: best-corrected visual acuity (BCVA); conditions: intravitreal, 4 week intervals, Phase III trials; cited from earlier work
[7] = 20 μg/1.0%, * significant vs vehicle-injected controls
[8] = 50 ng/ml VEGF, BrdU incorporation

Molecule	Prevention Efficacy ([1]; 2 μg/0.1%)	Prevention Efficacy [1, 7]	ED50 (nmole) [2]	ED50 (μg) [2]	Potency [2]	Efficacy (0.1%) Median-value [2]	Efficacy (1%) Median-value [2]	Efficacy (0.1%) [3]	Efficacy (1%) [3]	ED50 (nmole) [3]	ED50 (μg) [3]	Potency [3]	ED50 (nmole) [5]	ED50 (μg) [5]	Potency [5]	EC50 [4, 8]	other results
Cc1cccc(NC(=O)Nc2ccc(-c3cncc4[nH]nc(N)c34)cc2)c1 [Compound I, 1-[4-(3-Amino-1H-pyrazolo[3,4-c]pyridin-4-yl)-phenyl]-3-m-tolyl-urea]	−53.8%	37.6%	13.44 nmol	4.82 µg	5.75	100%*	100%*	65.4%*	88.9%*	4.04^ nmole	1.447 µg	1.2*	25.47 nmol	9.13 µg	2.26		EC50 [4]: 0.16 nM
Cc1cccc(NC(=O)Nc2ccc(-c3csc4ncnc(N)c34)cc2)c1 [Compound II, 1-[4-(4-Amino-thieno[2,3-d]pyrimidin-5-yl)-phenyl]-3-m-tolyl-urea]	2 μg/0.1% = 40.6%	20 μg/1.0% = 69.0%*	12.17 nmol	4.57 µg	6.23	32.2%	100%*	85.2%*	85.7%*	7.62 nmol	2.86 µg	0.392*	24.31 nmol	9.13 µg	2.3	0.11 nM	Relative Potency vs Reference ([4]; BREC proliferation, relative to reference standard RTKi): 14.5 ± 15.1
Cc1cc(O)cc(NC(=O)Nc2ccc(-c3cccc4[nH]nc(N)c34)cc2)c1 [III, 1-[4-(3-Amino-1H-indazol-4-yl)-phenyl]-3-(3-hydroxy-5-methyl-phenyl)-urea]			15.85 nmol	5.92 µg	4.03	1.5%	100%*	−96.7%	−316.9%	>80.3 nmol	>30 µg	0.028				0.45 ± 0.05 nM	
COCCOc1ccc(-c2ccc(NC(=O)Nc3cccc(C)c3)cc2)c2c(N)n[nH]c12 [IV, 1-{4-[3-Amino-7-(2-methoxy-ethoxy)-1H-indazol-4-yl]-phenyl}-3-m-tolyl-urea]	2 μg/0.1% = 1.1%	20 μg/1.0% = 49.7%*	13.23 nmol	5.71 µg	4.2	100%*	100%*	73.9%*	−148.2%							0.1 ± 0.01 nM	Prevention Efficacy ([1]; 6 μg/0.3%): 6 μg/0.3% = 13.9%
Cc1ccc(F)c(NC(=O)Nc2ncc(-c3cccc4[nH]nc(N)c34)cn2)c1 [IX]																	IC50 (KDR (VEGFR2) kinase): > 10000 nM; activity against KDR (KDR (VEGFR2) kinase): essentially have no activity; VEGF ind BREC prolif EC50 [4, 8]: Not Active; activity against VEGF-induced proliferation [4]: completely inactive
Cc1cccc(NC(=O)Nc2ccc(-c3csc4ccnc(N)c34)cc2)c1 [V, 1-[4-(4-Amino-thieno[3,2-c]pyridin-3-yl)-phenyl]-3-m-tolyl-urea]			24.11 nmol	9.03 µg	1.94	16.9%	100%*	64.0%	40.4%	3.8^ nmole	1.42 µg	1.38*				1.57 ± 1.24 nM	
Cc1cccc(NC(=O)Nc2ccc(-c3csc4c(-c5ccncc5)cnc(N)c34)cc2)c1 [VI, 1-[4-(4-Amino-7-pyridin-4-yl-thieno[3,2-c]pyridin-3-yl)-phenyl]-3-m-tolyl-urea]			13.31 nmol	6.01 µg	3.86	35.7%	88.4* %	106.5%*	70.6%*				39.46 nmol	17.82 µg	1.75	0.07 ± 0.069 nM	
Cc1cccc(NC(=O)Nc2ccc(-c3csc4c(-c5cccnc5)cnc(N)c34)cc2)c1 [VII, 1-[4-(4-Amino-7-pyridin-3-yl-thieno[3,2-c]pyridin-3-yl)-phenyl]-3-m-tolyl-urea]			15.74 nmol	7.11 µg	3.23	9.6%	100* %	84%*	73.5%*	5.47 nmol	2.47 µg	0.621*	20.86 nmol	9.42 µg	2.49	0.11 ± 0.086 nM	
Nc1n[nH]c2cccc(-c3ccc(NC(=O)Nc4c(Cl)cccc4Cl)cc3)c12 [VIII]																	IC50 (KDR (VEGFR2) kinase): > 10000 nM; activity against KDR (KDR (VEGFR2) kinase): essentially have no activity; VEGF ind BREC prolif EC50 [4, 8]: Not Active; activity against VEGF-induced proliferation [4]: completely inactive
Lucentis: Fab fragment of a humanized monoclonal antibody that binds all isoforms of VEGF-A (antibody, chains of the INN, looked up, V domains shown, Fab) VH: EVQLVESGGGLVQPGGSLRLSCAASGYDFTHYGMNWVRQAPGKGLEWVGWINTYTGEPTYAADFKRRFTFSLDTSKSTAYLQMNSLRAEDTAVYYCAKYPYYYGTSHWYFDVWGQGTLVTVSS VL: DIQLTQSPSSLSASVGDRVTITCSASQDISNYLNWYQQKPGKAPKVLIYFTSSLHSGVPSRFSGSGSGTDFTLTISSLQPEDFATYYCQQYSTVPWTFGQGTKVEIK																	treated patients with maintained best-corrected visual acuity (BCVA) [6]: 95%
